Experimental data reported in PubChem BioAssay (NCI).
Values joined by “and” are separate entries in the source; they are usually repeats but may differ in a detail not shown here. Identical values can stand only once.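 Following 48 hours of exposure in 96-well plates, responses at five concentrations were used to interpolate endpoints linearly. GI50: concentration for 50% inhibition of growth. TGI: concentration producing complete growth inhibition.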

Assays:
Assay in all cases: growth of human tumour cells (NCI), 48 h
[1] = test system: HOP-62 NSCLC
[2] = test system: KM12 colon
[3] = test system: MALME-3M melanoma
[4] = test system: MDA-MB-231 breast
[5] = test system: MDA-MB-435
[6] = test system: OVCAR-8 ovarian
[7] = test system: RPMI-8226 leukemia
[8] = test system: SF-539 CNS
[9] = test system: SNB-75 CNS
[10] = test system: UACC-62 melanoma

CCOC(=O)C(=CN1CCNC1=S)C(=O)OCC
TGI [1]: > 100 µM | GI50 [2]: > 100 µM | TGI [2]: > 100 µM | TGI [3]: > 100 µM | TGI [4]: > 100 µM | TGI [5]: > 100 µM | TGI [6]: > 100 µM | TGI [7]: > 100 µM | TGI [8]: > 100 µM | GI50 [9]: > 100 µM | TGI [9]: > 100 µM | TGI [10]: > 100 µM

Cc1cc2oc(C)c(S(=O)(=O)NC(=O)Nc3ccc(Cl)cc3)c(=O)c2c(=O)o1
TGI [1]: > 100 µM | TGI [2]: > 100 µM | TGI [3]: > 100 µM | TGI [4]: > 100 µM | TGI [5]: > 100 µM | TGI [6]: > 100 µM | TGI [7]: > 100 µM | TGI [8]: > 100 µM | TGI [9]: > 100 µM | TGI [10]: > 100 µM

CCCc1nnc2sc(COc3cc(Cl)c(OCc4nn5c(CCC)nnc5s4)cc3Cl)nn12
TGI [1]: > 100 µM | TGI [2]: > 100 µM | TGI [3]: > 100 µM | TGI [4]: > 100 µM | TGI [5]: > 100 µM | TGI [6]: > 100 µM | TGI [7]: > 100 µM | TGI [8]: > 100 µM | TGI [9]: 45.3 µM | TGI [10]: > 100 µM

CCC(=O)/C(=C\I)c1ccccc1
TGI [1]: 39.7 µM | TGI [2]: 19.9 µM | TGI [3]: 3.23 µM | TGI [4]: 3.29 µM | TGI [5]: 10.4 µM | TGI [6]: 3.68 µM | TGI [7]: > 100 µM | TGI [8]: 34.3 µM | TGI [9]: 3.48 µM | TGI [10]: 9.77 µM

COc1ccc2c(c1)c1nn(CCN3CCCCC3)c3ccc4c(=O)n(CCN(C)C)c(=O)n2c4c13
TGI [1]: 0.0384 µM | TGI [2]: 0.0801 µM | TGI [3]: 0.351 µM | TGI [4]: 0.126 µM | TGI [5]: 0.088 µM | TGI [6]: 0.3 µM | TGI [7]: 0.0862 µM | TGI [8]: 0.975 µM | TGI [9]: 0.0711 µM | TGI [10]: 0.197 µM

O=C(c1ccc(O)c([N+](=O)[O-])c1)c1ccc(O)c([N+](=O)[O-])c1
TGI [1]: > 100 µM | TGI [2]: > 100 µM | TGI [3]: 98.6 µM | TGI [4]: > 100 µM | TGI [5]: 70.1 µM | TGI [6]: > 100 µM | TGI [7]: > 100 µM | TGI [8]: > 100 µM | TGI [9]: 85.7 µM | TGI [10]: > 100 µM

CC(=O)N(C(C)=O)n1c(Cc2ccc(C)cc2)nn(C(C)=O)c1=O
TGI [1]: > 100 µM | TGI [2]: > 100 µM | TGI [3]: > 100 µM | TGI [4]: > 100 µM | TGI [5]: > 100 µM | TGI [6]: > 100 µM | TGI [7]: > 100 µM | TGI [8]: > 100 µM | TGI [9]: > 100 µM | TGI [10]: > 100 µM

CCOC(=O)C(NC(=O)CC)(Nc1ccc(F)c(Cl)c1)C(F)(F)F (stereo not drawn)
TGI [1]: > 100 µM | TGI [2]: > 100 µM | TGI [3]: > 100 µM | TGI [4]: > 100 µM | TGI [5]: > 100 µM | TGI [6]: > 100 µM | TGI [7]: > 100 µM | TGI [8]: > 100 µM | TGI [9]: > 100 µM | TGI [10]: > 100 µM

COc1ccc(N=C2C(=Nc3ccc(OC)cc3)N(c3ccc(N(C)C)cc3)C(=S)N2c2ccc(OC)cc2)cc1
TGI [1]: > 100 µM | TGI [2]: > 100 µM | TGI [3]: > 100 µM | TGI [4]: > 100 µM | TGI [5]: > 100 µM | TGI [6]: > 52 µM | TGI [7]: > 100 µM | TGI [8]: > 100 µM | TGI [9]: > 91.8 µM | TGI [10]: > 100 µM

CCCC(=O)NC(Nc1ccc(F)cc1)(C(F)(F)F)C(F)(F)F
TGI [1]: > 100 µM | TGI [2]: > 100 µM | TGI [3]: > 100 µM | TGI [4]: > 100 µM | TGI [5]: > 100 µM | TGI [6]: > 100 µM | TGI [7]: > 100 µM | TGI [8]: > 100 µM | TGI [9]: > 100 µM | TGI [10]: > 100 µM

CCCN(CCC)C1CCc2c(ccc3cc[nH]c23)C1 (stereo not drawn)
TGI [1]: > 100 µM | TGI [2]: > 100 µM | TGI [3]: > 100 µM | TGI [4]: > 100 µM | TGI [5]: > 100 µM | TGI [6]: > 100 µM | TGI [7]: > 100 µM | TGI [8]: > 100 µM | TGI [9]: > 100 µM | TGI [10]: > 100 µM

Cc1cc(N(CCC#N)CCC#N)ccc1/C=C1\SC(=S)NC1=O
TGI [1]: > 100 µM | TGI [2]: > 100 µM | TGI [3]: > 100 µM | TGI [4]: > 100 µM | TGI [5]: > 100 µM | TGI [6]: > 100 µM | TGI [7]: > 100 µM | TGI [8]: > 100 µM | TGI [9]: 93.6 µM | TGI [10]: > 100 µM

CN(C)CC1CCC/C(=C\c2ccc(OC(=O)/C=C/c3ccc(Cl)c(Cl)c3)cc2)C1=O (stereo not drawn)
TGI [1]: 14.8 µM | TGI [2]: 3.61 µM | TGI [3]: 25.4 µM | TGI [4]: 11.9 µM | TGI [5]: > 60.1 µM | TGI [6]: 28.5 µM | TGI [7]: 0.62 µM | TGI [8]: 7.19 µM | TGI [9]: 68.5 µM | TGI [10]: 33.3 µM

COC(=O)c1cccc(OC)c1C#Cc1c(OC)cccc1OC
TGI [1]: > 100 µM | TGI [2]: > 100 µM | TGI [3]: > 100 µM | TGI [4]: > 100 µM | TGI [5]: > 100 µM | TGI [6]: > 100 µM | TGI [7]: > 100 µM | TGI [8]: > 100 µM | TGI [9]: > 100 µM | TGI [10]: > 100 µM

CCN(CC)CCOC(=O)Cc1cccc2c(=O)cc(-c3ccccc3)oc12
GI50 [1]: 25.9 µM | TGI [1]: 62.5 µM and > 144 µM | GI50 [2]: 83.5 µM | TGI [2]: 62.5 µM and > 165 µM | GI50 [3]: 64.7 µM | TGI [3]: 62.5 µM and 165 µM | TGI [4]: 57.2 µM | TGI [5]: 62.5 µM | TGI [6]: 62.5 µM and > 254 µM | TGI [7]: 51 µM and > 224 µM | GI50 [8]: 58.6 µM | TGI [8]: 62.5 µM and > 179 µM | GI50 [9]: 13 µM | TGI [9]: 50.1 µM and 126 µM | GI50 [10]: 39.5 µM | TGI [10]: 62.5 µM and > 154 µM

COC(=O)NC(Cc1ccccc1)NC(C)=O (stereo not drawn)
TGI [1]: > 100 µM | TGI [2]: > 100 µM | TGI [3]: > 100 µM | TGI [4]: > 100 µM | TGI [5]: > 100 µM | TGI [6]: > 100 µM | TGI [7]: > 100 µM | TGI [8]: > 100 µM | TGI [9]: > 100 µM | TGI [10]: > 100 µM

Cc1ccc(S(=O)(=O)n2ccc(-c3ccc4ccn(S(=O)(=O)c5ccc(C)cc5)c4c3)c2)cc1
TGI [1]: > 100 µM | TGI [2]: > 100 µM | TGI [3]: > 100 µM | TGI [4]: > 100 µM | TGI [5]: > 100 µM | TGI [6]: > 100 µM | TGI [7]: > 100 µM | TGI [8]: > 100 µM | TGI [9]: > 100 µM | TGI [10]: > 100 µM

N#CC[N+]1(Cc2ccccn2)CCCC1
TGI [1]: > 100 µM | TGI [2]: > 100 µM | TGI [3]: > 100 µM | TGI [4]: > 100 µM | TGI [5]: > 100 µM | TGI [6]: > 100 µM | TGI [7]: > 100 µM | TGI [8]: > 100 µM | TGI [9]: > 100 µM | TGI [10]: > 100 µM

Cc1cc(O)cc(O)c1C(=O)O[C@]1(C)C(=O)C=C2C=C(/C=C/C(=O)O)OC=C2C1=O
TGI [1]: > 100 µM | TGI [2]: > 100 µM | TGI [3]: > 100 µM | TGI [4]: > 100 µM | TGI [5]: > 100 µM | TGI [6]: > 100 µM | TGI [7]: > 100 µM | TGI [8]: > 100 µM | TGI [9]: > 100 µM | TGI [10]: > 100 µM

N=c1oc2ccccc2cc1-c1nc2ccccc2c(=O)[nH]1
TGI [1]: 69.9 µM | TGI [2]: > 100 µM | TGI [3]: > 100 µM | TGI [4]: > 100 µM | TGI [5]: > 100 µM | TGI [6]: > 100 µM | TGI [7]: > 100 µM | TGI [8]: > 100 µM | TGI [9]: 25.3 µM | TGI [10]: > 100 µM

COC(=O)C1=CON2C3CC4CC(C3)CC(C4)C12C (stereo not drawn)
TGI [1]: > 100 µM | TGI [2]: > 100 µM | TGI [3]: > 100 µM | TGI [4]: > 100 µM | TGI [5]: > 100 µM | TGI [6]: > 100 µM | TGI [7]: > 100 µM | TGI [8]: > 100 µM | TGI [9]: > 100 µM | TGI [10]: > 100 µM

O=[N+]([O-])c1ccc(N2N=C(c3ccc4ccccc4c3O)CC2c2ccc(Cl)cc2)c([N+](=O)[O-])c1 (stereo not drawn)
TGI [1]: > 100 µM | TGI [2]: > 100 µM | TGI [3]: > 100 µM | TGI [4]: > 100 µM | TGI [5]: 33 µM | TGI [6]: > 100 µM | TGI [7]: 63.2 µM | TGI [8]: > 100 µM | TGI [9]: > 100 µM | TGI [10]: > 100 µM
